Source: patent US8822542B2, “Isoketal scavengers and mitigation of disorders involving oxidative injury” (Vanderbilt University, priority 2005, dated 2014)

Key:
ovalbumin (OVA) = ovalbumin (OVA) (Gallus gallus, UniProt P01012); assay: Protein cross-linking after incubation with ovalbumin; assay type: biochemical; conditions: 10 molar equivalents, about 4 hours
Description: The above findings explained why repeated attempts in the past to detect free IsoKs during oxidation of biological systems in vitro, e.g. microsomes, and in animal models of oxidant injury in vivo were unsuccessful because they are rapidly sequestered as protein adducts. Therefore, the present inventors undertook to determine the identity of IsoK lysyl adducts as a basis for development of methodology to detect IsoK and NeuroK adducts in biological tissues in their adducted form. […] Reversible Schiff base adducts were also identified. Schiff base adducts are formed rapidly and then decline over time, whereas lactam adducts accumulate slowly over time. Lysyl protein adducts of IsoKs and NeuroKs are analyzed by LC/MS/MS following enzymatic digestion of proteins to individual amino acids. Enzymatic digestion of proteins is necessary because the adducts degrade during acid hydrolysis. However, this analysis is further complicated by the proclivity of IsoKs and NKs to induce protein crosslinking, which is resistant to hydrolysis. […] This is a dramatic example of the differential effects of IsoKs/NKs and HNE on protein adduction and cross-linking.

[1] = biological target: human cardiac Na channel (hH1, or SCN5A) (Homo sapiens, UniProt Q14524); assay: Whole-cell Na current recording, wild-type hH1 expressed in HEK-293 cells; conditions: for P500/P1 (use-dependence): 5 Hz, 500 pulses; for V1/2 voltage-dependence of inactivation (availability): HEK-293, t-BHP 1 mM, Iso-K 10 μM
human cardiac Na channel (hH1, or SCN5A), sequence (Q14524 whole entry): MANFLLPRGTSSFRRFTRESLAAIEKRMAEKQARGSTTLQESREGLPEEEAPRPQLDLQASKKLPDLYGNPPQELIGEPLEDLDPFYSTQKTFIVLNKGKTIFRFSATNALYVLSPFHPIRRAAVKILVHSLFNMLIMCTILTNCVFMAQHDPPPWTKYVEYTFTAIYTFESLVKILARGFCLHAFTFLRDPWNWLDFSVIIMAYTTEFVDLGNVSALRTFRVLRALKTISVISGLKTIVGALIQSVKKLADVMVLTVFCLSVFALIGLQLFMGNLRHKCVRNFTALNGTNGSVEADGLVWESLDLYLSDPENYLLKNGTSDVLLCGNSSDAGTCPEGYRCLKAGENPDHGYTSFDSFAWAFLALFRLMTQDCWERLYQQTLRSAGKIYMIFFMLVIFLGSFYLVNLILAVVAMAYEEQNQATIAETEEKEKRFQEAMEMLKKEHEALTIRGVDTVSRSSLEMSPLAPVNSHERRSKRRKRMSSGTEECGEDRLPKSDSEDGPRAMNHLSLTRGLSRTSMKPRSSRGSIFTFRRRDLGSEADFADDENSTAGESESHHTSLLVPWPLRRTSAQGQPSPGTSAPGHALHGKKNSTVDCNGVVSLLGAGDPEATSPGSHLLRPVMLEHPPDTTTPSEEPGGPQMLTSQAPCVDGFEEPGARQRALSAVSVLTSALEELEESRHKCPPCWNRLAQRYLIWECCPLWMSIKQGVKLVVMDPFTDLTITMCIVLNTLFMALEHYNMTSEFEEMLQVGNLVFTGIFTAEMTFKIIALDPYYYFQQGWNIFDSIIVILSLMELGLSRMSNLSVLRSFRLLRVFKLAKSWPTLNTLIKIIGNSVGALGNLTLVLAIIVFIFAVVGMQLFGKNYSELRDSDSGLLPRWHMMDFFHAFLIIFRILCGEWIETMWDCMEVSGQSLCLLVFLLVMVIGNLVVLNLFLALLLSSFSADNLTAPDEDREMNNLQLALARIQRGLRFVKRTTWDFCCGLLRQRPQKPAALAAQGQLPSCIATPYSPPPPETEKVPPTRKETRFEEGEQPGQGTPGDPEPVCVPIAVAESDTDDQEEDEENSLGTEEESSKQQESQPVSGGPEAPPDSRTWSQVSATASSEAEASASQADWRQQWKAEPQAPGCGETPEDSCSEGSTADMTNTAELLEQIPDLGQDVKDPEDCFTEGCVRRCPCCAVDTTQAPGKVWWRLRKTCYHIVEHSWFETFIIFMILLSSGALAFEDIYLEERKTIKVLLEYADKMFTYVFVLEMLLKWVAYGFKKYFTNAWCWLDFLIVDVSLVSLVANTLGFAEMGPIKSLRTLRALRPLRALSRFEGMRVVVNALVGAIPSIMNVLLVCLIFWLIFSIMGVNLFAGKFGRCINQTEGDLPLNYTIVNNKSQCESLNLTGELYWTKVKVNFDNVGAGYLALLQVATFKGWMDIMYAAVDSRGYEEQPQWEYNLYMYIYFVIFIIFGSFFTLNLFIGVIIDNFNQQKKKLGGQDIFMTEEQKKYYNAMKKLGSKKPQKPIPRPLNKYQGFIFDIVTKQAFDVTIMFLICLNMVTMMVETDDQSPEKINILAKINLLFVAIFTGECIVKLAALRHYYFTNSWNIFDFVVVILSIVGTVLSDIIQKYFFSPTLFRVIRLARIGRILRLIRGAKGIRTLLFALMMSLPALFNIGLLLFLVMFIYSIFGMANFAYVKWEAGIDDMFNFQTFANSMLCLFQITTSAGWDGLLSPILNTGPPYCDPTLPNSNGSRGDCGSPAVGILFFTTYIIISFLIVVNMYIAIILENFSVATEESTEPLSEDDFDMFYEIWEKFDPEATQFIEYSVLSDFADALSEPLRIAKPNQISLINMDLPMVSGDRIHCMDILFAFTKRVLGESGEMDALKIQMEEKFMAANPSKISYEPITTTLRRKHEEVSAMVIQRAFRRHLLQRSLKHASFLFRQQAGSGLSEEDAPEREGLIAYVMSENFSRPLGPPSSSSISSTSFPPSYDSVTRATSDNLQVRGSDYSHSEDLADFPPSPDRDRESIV

P19 neuroglial cultures = assay: Cell death in P19 neuroglial cultures; assay type: cell-based; conditions: read-out: LC50 cell death
Description: (§1) Because inhibitors of proteasome function induce neuronal death, the present inventors examined the toxicity of IsoKs.

recombinant human tau = assay: PHF-tau formation, dot blot with Alz50; assay type: biochemical; conditions: equimolar IsoK and tau, within 2 hrs
Experimental: Synthetic IsoK to equimolar amounts of recombinant human tau was added and the amount of PHF-tau formation by dot blot analysis was determined with the monoclonal antibody Alz50 (a gift from Dr. Peter Davis). Alz50 recognizes an epitope unique to PHF-tau. […] (FIG. 33).

proteasome = assay: Proteasome inhibition in P19 neuroglial cultures; assay type: cell-based
Description: as §1

bovine serum albumin = bovine serum albumin (Bos taurus, UniProt P02769); assay: Disappearance of free IsoK and HNE during incubation with bovine serum albumin (rate of adduction); assay type: biochemical
bovine serum albumin, sequence (P02769 25-607): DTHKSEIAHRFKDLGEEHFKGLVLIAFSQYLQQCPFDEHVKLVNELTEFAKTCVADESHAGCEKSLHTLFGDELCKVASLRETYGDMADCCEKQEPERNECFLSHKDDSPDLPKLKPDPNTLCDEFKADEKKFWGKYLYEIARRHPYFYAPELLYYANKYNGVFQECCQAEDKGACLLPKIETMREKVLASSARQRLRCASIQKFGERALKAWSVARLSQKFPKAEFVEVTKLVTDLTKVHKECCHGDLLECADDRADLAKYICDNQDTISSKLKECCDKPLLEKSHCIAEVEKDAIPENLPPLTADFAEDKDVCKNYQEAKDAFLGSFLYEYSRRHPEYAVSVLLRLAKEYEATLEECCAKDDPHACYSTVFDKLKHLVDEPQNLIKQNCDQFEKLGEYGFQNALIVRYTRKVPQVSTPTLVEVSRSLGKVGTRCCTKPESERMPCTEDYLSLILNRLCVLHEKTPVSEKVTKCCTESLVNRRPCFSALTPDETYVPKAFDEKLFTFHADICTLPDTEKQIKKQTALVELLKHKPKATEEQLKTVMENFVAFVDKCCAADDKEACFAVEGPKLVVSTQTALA
Experimental: Oxidation of AA in vitro produces both F2-IsoPs and IsoKs in nearly equivalent amounts. However, comparison of the formation of F2-IsoPs and IsoKs in vivo is more complex, because IsoKs rapidly adduct to lysyl residues on proteins. […] In striking contrast, approximately 50% of the HNE still remained in free form after 80 minutes.

[2] = biological target: native Na+ channels in HL-1 cells (Mus musculus, UniProt Q9JJV9); conditions: for Na channel availability: HL-1, preincubation; for V1/2 availability of native Na+ channels: HL-1, t-BHP 2 mM, Iso-K 10 μM
native Na+ channels in HL-1 cells, sequence (Q9JJV9 whole entry): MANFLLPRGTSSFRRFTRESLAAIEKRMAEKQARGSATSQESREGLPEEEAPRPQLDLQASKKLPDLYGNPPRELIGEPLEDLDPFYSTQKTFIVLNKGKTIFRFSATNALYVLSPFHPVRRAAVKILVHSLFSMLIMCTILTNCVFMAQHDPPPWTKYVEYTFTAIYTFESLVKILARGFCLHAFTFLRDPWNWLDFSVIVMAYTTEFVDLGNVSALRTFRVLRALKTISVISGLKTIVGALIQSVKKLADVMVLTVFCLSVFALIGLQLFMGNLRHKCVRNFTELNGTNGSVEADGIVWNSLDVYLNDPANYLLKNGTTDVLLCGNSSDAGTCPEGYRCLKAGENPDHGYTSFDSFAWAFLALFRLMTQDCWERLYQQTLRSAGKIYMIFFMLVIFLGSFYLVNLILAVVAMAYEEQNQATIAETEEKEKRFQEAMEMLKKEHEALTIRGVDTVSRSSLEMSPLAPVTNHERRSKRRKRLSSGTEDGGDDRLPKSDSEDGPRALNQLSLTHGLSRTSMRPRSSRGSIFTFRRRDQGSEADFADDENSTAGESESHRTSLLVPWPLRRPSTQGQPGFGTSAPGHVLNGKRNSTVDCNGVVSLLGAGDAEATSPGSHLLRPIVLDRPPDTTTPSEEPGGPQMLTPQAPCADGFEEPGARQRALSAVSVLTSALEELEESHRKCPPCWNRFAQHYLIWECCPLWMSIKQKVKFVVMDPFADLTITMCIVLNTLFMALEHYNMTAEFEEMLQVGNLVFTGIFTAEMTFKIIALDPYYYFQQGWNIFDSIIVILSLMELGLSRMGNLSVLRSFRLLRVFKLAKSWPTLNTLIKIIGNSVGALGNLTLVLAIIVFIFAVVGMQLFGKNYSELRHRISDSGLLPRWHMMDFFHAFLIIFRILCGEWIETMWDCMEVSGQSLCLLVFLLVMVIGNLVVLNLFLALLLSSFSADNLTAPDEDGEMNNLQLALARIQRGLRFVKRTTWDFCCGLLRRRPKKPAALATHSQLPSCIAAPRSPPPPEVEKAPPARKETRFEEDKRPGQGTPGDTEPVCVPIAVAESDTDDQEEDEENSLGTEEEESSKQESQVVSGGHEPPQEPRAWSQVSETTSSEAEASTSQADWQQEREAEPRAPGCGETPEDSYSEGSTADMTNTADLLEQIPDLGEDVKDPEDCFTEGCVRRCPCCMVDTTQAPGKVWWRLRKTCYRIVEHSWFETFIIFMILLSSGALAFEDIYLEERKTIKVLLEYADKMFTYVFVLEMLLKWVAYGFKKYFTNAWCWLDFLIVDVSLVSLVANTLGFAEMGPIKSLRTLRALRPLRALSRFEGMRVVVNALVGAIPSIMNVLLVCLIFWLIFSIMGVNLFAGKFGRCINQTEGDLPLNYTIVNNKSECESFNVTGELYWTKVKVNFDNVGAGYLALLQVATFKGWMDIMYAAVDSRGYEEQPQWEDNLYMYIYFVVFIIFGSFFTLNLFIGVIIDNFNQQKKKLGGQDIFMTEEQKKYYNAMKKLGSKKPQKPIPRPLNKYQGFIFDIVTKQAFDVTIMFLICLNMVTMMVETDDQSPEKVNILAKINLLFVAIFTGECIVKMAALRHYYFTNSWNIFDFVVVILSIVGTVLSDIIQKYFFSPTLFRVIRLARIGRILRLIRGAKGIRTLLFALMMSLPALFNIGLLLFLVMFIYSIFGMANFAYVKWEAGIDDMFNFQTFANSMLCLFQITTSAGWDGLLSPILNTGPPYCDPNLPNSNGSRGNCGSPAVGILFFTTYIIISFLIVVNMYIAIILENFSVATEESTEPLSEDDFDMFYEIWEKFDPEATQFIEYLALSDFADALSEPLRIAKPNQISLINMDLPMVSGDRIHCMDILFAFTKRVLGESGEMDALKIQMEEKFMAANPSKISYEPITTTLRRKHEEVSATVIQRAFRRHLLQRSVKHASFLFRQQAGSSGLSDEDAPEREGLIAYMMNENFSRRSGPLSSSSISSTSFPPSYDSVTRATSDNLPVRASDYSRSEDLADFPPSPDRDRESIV

[3] = system: proteasome chymotrypsin-like activity; assay: Inhibition of chymotrypsin-like activity in RAW cell lysates; assay type: biochemical
Description: When the mechanism of inhibition id analyzed, both competitive and non-competitive mechanism are found. Therefore, in addition to adducted proteins inhibiting the proteasome, IsoKs may cause inhibition by directly adducting to the proteasome itself, or to proteins that regulate proteasome activity.

HEK-293 cells = assay: Lipid peroxidation products in HEK 293 cells treated with t-BHP; assay type: cell-based; conditions: exposure of HEK cells
Experimental: Synthesis and analysis of reactive products of lipid peroxidation: E2-isoketal was synthesized as previously described. The present inventors used mass spectrometry to analyze F2-isoprostanes formed following treatment of HEK 293 cells with t-BHP. For this assay, HEK-293 cells (1×10^6) were treated for 30 minutes at room temperature with buffer containing 100 μM t-BHP, or 100 μM t-BHP and 200 μM FeCl2. Total (free and esterified) F2-isoprostanes (F2-IsoPs) esterified in cellular lipids were then quantified by a highly accurate GC/NICI/MS assay as described previously.

[4] = biological target: mutant Na+ channel (F1760A) (Homo sapiens, UniProt Q14524, F1760A); assay: Whole-cell Na current recording, F1760A mutant Na+ channel; assay type: cell-based; conditions: flecainide 10 μM, IsoK 10 μM
Experimental: A. Use-dependent flecainide block was examined using the protocol shown. A train of 500 depolarizing pulses with 10 msec duration at −20 mV were applied at a frequency of 5 Hz. Currents are plotted from every twentieth pulse. Upper panel represents the current in the presence of flecainide (1 μM). Lower panel represents INa in the presence of flecainide and IsoK (10 μM). B. Depolarization-dependent effects are summarized as a function of the pulse number. All current amplitudes are normalized to that of the first depolarization and every tenth pulse is plotted. […] For these experiments flecainide concentration was increased to 10 μM.
Where indicated, cells were co-transfected with an equimolar ratio of Na channel human β1 subunit. cDNAs were transiently transfected into HEK-293 cells using lipofectamine (GIBCO-BRL, Gaithersburg, Md.), and were cultured in MEM medium supplemented with 10% fetal bovine serum and 1% pen-strep in a 5% CO2 incubator at 37° C. for 1 to 4 days.
The effects of IsoK were tested using the same protocol as FIG. 39A. In this experiment, the concentration of flecainide was increased to 10 μM to exaggerate use-dependence.

[5] = system: patients convalescing from myocardial infarction; conditions: in vivo; cited from earlier work
[6] = system: F2-IsoPs esterified in the kidney; assay: Galactosamine treated rats (hepatorenal syndrome model), F2-IsoPs esterified in the kidney; assay type: in vivo, rat; conditions: 1 g/L drinking water
Description: Another antioxidant of the present invention is lipoic acid. […] Dihydrolipoic acid is a dithiol. As mentioned previously, thiols reduce the endoperoxide intermediates in the IsoP pathway in vivo to F2-IsoPs. Reducing the endoperoxides concomitantly therefore reduces the formation of endoperoxide rearrangement products, one of which is the IsoKs (FIG. 28). Therefore, mechanistically lipoic acid is an antioxidant to test in animal models of AD. It is also an antioxidant to test because it is available over the counter for human use.

aged SAMP mice = conditions: mouse, in vivo; cited from earlier work
[7] = alone, flecainide 1 μM, IsoK 10 μM

ovalbumin (OVA), sequence (P01012 whole entry, species assumed): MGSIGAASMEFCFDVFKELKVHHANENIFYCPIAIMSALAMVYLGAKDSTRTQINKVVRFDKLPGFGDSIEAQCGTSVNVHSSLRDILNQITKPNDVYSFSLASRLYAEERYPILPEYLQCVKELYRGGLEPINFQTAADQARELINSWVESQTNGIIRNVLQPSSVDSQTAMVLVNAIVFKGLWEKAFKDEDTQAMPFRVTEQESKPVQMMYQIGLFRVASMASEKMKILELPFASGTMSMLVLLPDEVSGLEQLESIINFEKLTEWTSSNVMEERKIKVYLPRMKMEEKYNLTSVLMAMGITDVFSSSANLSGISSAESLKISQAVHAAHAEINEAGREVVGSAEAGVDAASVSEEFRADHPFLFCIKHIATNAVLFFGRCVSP

E2-isoketal
cross-linking of ovalbumin (ovalbumin (OVA)): extensive cross-linked high molecular weight oligimers
A1 (amplitude of the fast component, recovery from inactivation) [1]: 0.79 ± 0.04
A2 (amplitude of the slow component, recovery from inactivation) [1]: 0.21 ± 0.04
INa decay [1]: speeded the rate Of INa decay
V1/2 voltage-dependence of activation [1]: −41.6±1.5 mV
P500/P1 (use-dependence) [1, 7]: 0.89±0.02
P500/P1 (use-dependence) ([1]; in the presence of flecainide 1 μM): 0.66±0.03
V1/2 voltage-dependence of inactivation (availability) ([1]; flecainide 1 μM): −96.4±1.1 mV
activation of sodium channels ([1]; over a range of membrane potentials): no effect on the activation
CC50 (P19 neuroglial cultures): 670 nM
PHF-tau formation (Alz50) (recombinant human tau): strong Alz50 immunoreactivity
IC50 (proteasome): 330 nM
adduction to albumin (bovine serum albumin): essentially complete within a few minutes
Na channel availability [2]: reduced Na channel availability
V1/2 availability of native Na+ channels [2]: −82.0±1.7 mV
IC50 [3]: 2100 nM

CC(C)(C)OO [t-BHP, tert-butyl hydroperoxide]
formation of lipid peroxidation products (HEK-293 cells): abundant quantities of F2-IsoPs and IsoK
Na channel availability [2]: reduced Na channel availability
V1/2 availability of native Na+ channels [2]: −82.8±1.7 mV

O=C(NCC1CCCCN1)c1cc(OCC(F)(F)F)ccc1OCC(F)(F)F (centres unmarked) [flecainide]
A1 (amplitude of the fast component, recovery from inactivation) [1]: 0.80 ± 0.04
A2 (amplitude of the slow component, recovery from inactivation) [1]: 0.20 ± 0.04
P500/P1 (use-dependence) [1, 7]: 0.87±0.04
V1/2 voltage-dependence of inactivation (availability) ([1]; flecainide 1 μM): −86.4±2.1 mV
P500/P1 (use-dependent block) ([1]; WT, flecainide 10 μM, IsoK 10 μM): 0.38±0.05
V1/2 voltage-dependence of inactivation ([1]; flecainide 1 μM in the presence of IsoK 10 μM): −99.3±2.3 mV
P500/P1 (use-dependent block) [4]: 0.92±0.03
mortality increase [5]: three-fold

O=C(O)CCCC[C@@H]1CCSS1 (racemic) [lipoic acid]
increase in F2-IsoPs esterified in the kidney [6]: completely suppressed to below control levels
cognitive impairment (aged SAMP mice): effective in improving cognitive impairment
